According to patent US5462929A, “Treatment of psoriasis by administration of 4-carbamoyl-1-β-D-ribofuranosylimidszolium-5-oleate” (Asahi Kasei Kogyo Kabushiki Kaisha, priority 1991, dated 1995):
Where two headings read alike, the source gives them in different places.

Tests used:
[1] = system: Normal human epidermal keratinocyte cells (NHEK); test: Growth inhibition on cultured human epidermal keratinocyte cells, Coulter counter method; assay type: cell-based; details: for Number of cells/cm^2: control 95.5
Method: (§1) Normal human epidermal keratinocyte cells
(§2) (NHEK: human penile prepuce originated secondary cultured cells)
(§3) (1) NHEK was subcultured according to the instruction described in the manual for Epi Pack, to obtain tertiary subcultured cells. Epi Pack medium on arrival was exchanged by fresh K-C,M to which added attached bovine pituitary gland extract (BPE), then NHEK was cultured at 37° C. and on the first day, tertiary cultivation was performed under the same conditions.
On the day of starting initial cultivation:
NHEK, 2500 cells/cm^2 (5000 cell/well), was inoculated in six 24-well culture plates.
(§4) Cultured, day 5, day 7 and day 9: Photographs were taken on the central part of the two plates of 24-well culture plate, and calculated the number of cells.
On the remaining other plates, the medium was exchanged and mizoribine was added. (amount added: the same as above)
Method of calculating number of cells
On the cultivation, day 5, day 7 and day 9, respectively, one plate of 24-well culture plate was applied for calculating number of cells by Coulter counter, and the other one plate was applied for dye uptake method.
(a) Measurement by Coulter counter
Each well: washed with 0.2 ml of HEPES buffer saline
add 0.2 ml of trypsin/EDTA solution,
allow to stand at room temperature for 10 minutes,
then tap the 24-well culture plate by solid face to remove
added 0.3 ml of trypsin neutralization solution and separated
the cells by pipetting.
calculation of cells by Coulter counter
(counted particles over 7 μm .phi.)

[2] = system: Normal human epidermal keratinocyte cells (NHEK); test: Microscopical observation of cultured keratinocyte cells; assay type: cell-based; details: 0.8 and 4 μg/ml, days 5, 7, 9; ×76.5
Method: as §1, §2, §3, §4
Magnification of microscopic photographs is ×76.5 in each case.

psoriasis vulgaris = test: Clinical trial on treatment of psoriasis (PASI, adverse effect, overall improvement, usefulness); assay type: in vivo, human; design: key to usefulness: 1: extremely useful; 2: useful; 3: slightly useful; 4: useless; 5: worse; key to overall improvement rate: 1: significantly improved; 2: improved; 3: slightly improved; 4: no change; 5: exacerbation; details: 300 mg/day oral
From the text: 2. Subject: Patients of psoriasis.
(1) Psoriasis vulgaris with median grade which satisfied within the following standard.
a) No consideration for the distinction of sex, inpatient and outpatient.
b) aged over 15 and below 70.
c) PASI [Psoriasis area and Severity Index; Darmtologica, 157; 238-244, 1978: Table 4] over 20 at initial stage of the test.
(2) Following patients are omitted.
b) patients who have suffered with severe bacterial, viral or mycotic infection.
c) person with complication or anamesis of malignant tumor.
d) person with cardiac disorder, renal disorder, blood disorder, gastrointestinal bleeding, peptic ulcer, and other serious complication, and anamesis.
e) a person in pregnancy or in a lactation, and who suspects being pregnant.
f) in addition, persons who are determined by the doctors-in-charge as unfit to participate.
2) Term for dosage: 6 weeks
3) Prohibited other concomitant drugs.
Concomitant use of the following preparation and others are prohibited.
a) Oral dosage of methotrexate, other immunosuppressant, etretinate and steroid preparations.
b) Ultraviolet treatment.
c) Other medicament which seem to be effective for psoriasis [Chinese indigenous medicine (Kampo-Yaku), anti-allergic drug, etc.]
2) Calculation method of PASI:
PASI=0.1 (Eh+Ih+Dh)×Ah+0.3 (Et+It+Dt)×At+0.2 (Eu+Iu+Du)×Au+0.4 (El+Il+Dl)×Al
During the period of administration of the drug, accompanied symptoms, which have newly appeared and were thought to be closely related to and can not be denied with the relation for the administered medicament, are checked and searched in details of the fact, the day appeared, the day disappeared, degree, treatment, result and relation with the test drug, and studied the presence of adverse effect.
On the treatment of administration of the drug after 6 weeks, the results were evaluated.
Considering the progress of PASI, following five degrees of evaluation were applied as compared with the condition before administration.
Considering the overall improvement and safety evaluation such as adverse effect, following five degrees of evaluation were applied.

[3] = system: Normal human epidermal keratinocyte cells (NHEK); test: Growth inhibition on cultured human epidermal keratinocyte cells, Coulter counter method; assay type: cell-based; details: mizoribine over 20 μg/ml, constant level; initial concentration 2.5×10^3 cells/ml
mice = details: cited from earlier work
rats = details: cited from earlier work
[4] = in vivo; cited from earlier work
[5] = clinical trials; cited from earlier work
[6] = rat; cited from earlier work
[7] = cited from earlier work
[8] = system: rejection of the transplantation of an organ such as kidney; details: cited from earlier work
[9] = system: Normal human epidermal keratinocyte cells (NHEK); test: Growth inhibition on cultured human epidermal keratinocyte cells, dye uptake method

## NC(=O)c1ncn([C@@H]2O[C@H](CO)[C@@H](O)[C@H]2O)c1O [Mizoribine, 4-carbamoyl-1-β-D-ribofuranosyl-imidazolium-5-olate]
[1]; 0.8 μg/ml, cultivation day 5, Coulter counter
  Number of cells/cm^2: 69.7 ×10^3 cells/cm^2
[1]; 4 μg/ml
  growth inhibition: significant growth inhibition was observed and cells were grown extremely slowly
[1]; 4 μg/ml, cultivation day 5, Coulter counter
  Number of cells/cm^2: 8.6 ×10^3 cells/cm^2
[1]; 8 μg/ml
  growth inhibition: significant growth inhibition was observed
[1]; 20 μg/ml, cultivation day 5, Coulter counter
  Number of cells/cm^2: 4.5 ×10^3 cells/cm^2
[1]; Homo sapiens, NHEK, 120 h, 0.8 μg/ml, cultivation day 5, Coulter counter, read-out: Inhibition rate
  inhibition at 0.8 µg/mL: 27%
[1]; Homo sapiens, NHEK, 120 h, 4 μg/ml, cultivation day 5, Coulter counter, read-out: Inhibition rate
  inhibition at 4 µg/mL: 91%
[1]; Homo sapiens, NHEK, 120 h, 20 μg/ml, cultivation day 5, Coulter counter, read-out: Inhibition rate
  inhibition at 20 µg/mL: 95%
[1]; blood level approximately 1 μg/ml
  inhibition of growth of human epidermal keratinocyte cells at concentration presumed to be reached in clinical use: effective for significant inhibition of growth of human epidermal keratinocyte cells
[2]
  morphology of cells: changed widely expanded shape
Psoriasis vulgaris; after 6 weeks
  overall improvement rate: 2
Psoriasis vulgaris; after 6 weeks, overall improvement and safety
  usefulness: 2
Psoriasis vulgaris; individual patients No. 1-4, 6 weeks
  Adverse effect: None
Psoriasis vulgaris; patient No. 1, PASI pre 20, 6 weeks
  PASI post: 12
Psoriasis vulgaris; patient No. 2, PASI pre 41.4, 6 weeks
  PASI post: 20
Psoriasis vulgaris; patient No. 3, PASI pre 24.3, 6 weeks
  PASI post: 14
Psoriasis vulgaris; patient No. 4, PASI pre 21, 6 weeks
  PASI post: 12
[3]
  number of cells: approximately 4×10^3 cells/ml
mice; female, i.m.
  LD50: > 2800 mg/kg
mice; female, i.v.
  LD50: > 3042 mg/kg
mice; female, p.o.
  LD50: > 4883 mg/kg
mice; female, s.c.
  LD50: > 4883 mg/kg
mice; male, i.m.
  LD50: > 2800 mg/kg
mice; male, i.v.
  LD50: > 3042 mg/kg
mice; male, p.o.
  LD50: > 4883 mg/kg
mice; male, s.c.
  LD50: > 4883 mg/kg
rats; female, i.m.
  LD50: > 2800 mg/kg
rats; female, i.v.
  LD50: > 2606 mg/kg
rats; female, s.c.
  LD50: > 3975 mg/kg
rats; male, i.m.
  LD50: > 2800 mg/kg
rats; male, i.v.
  LD50: > 2572 mg/kg
rats; male, p.o.
  LD50: > 3100 mg/kg
rats; male, s.c.
  LD50: > 4161 mg/kg
[4]
  blood accumulation residue: lower blood accumulation residue
  nephrotoxicity: no nephrotoxicity
  transfer into brain: less transfer into brain
[5]
  Blood level: approximately 1 μg/ml
[6]
  Dermal level compared with plasma level: almost equal in plasma level
[7]
  solubility in water: easily soluble in water
[8]
  immunosuppressive activity / rejection of organ transplantation: suppresses the rejection of the transplantation of an organ such as kidney
[9]; mizoribine addition
  growth inhibition rate, dye uptake method compared with Coulter counter method: slightly lower growth inhibition rate
[9]; where no difference in number of cells vs control by Coulter counter, lower level of concentration
  OD665 value: Significant increase in the value at OD665
